Assay results from PubChem BioAssay AID1963835 (Molecular Pharmacology Branch, DTP, NCI, 2024).

Test system: 699152-130-R-J1-PDC complex spheroid viability
Assay: Anticancer human tumor 699152-130-R-J1-PDC patient-derived pancreatic carcinoma cell line growth inhibition [POLQ]
Conditions: for IC50: curve of first compound; for viability, T/C: stronger effect = lower value
Experimental: Multicellular complex tumor spheroid response to Polymerase (POL) inhibitors (novobiocin, ART-558, RP6685) in combination with a variety of drugs and investigational agents in selected tumor cell lines
The POL inhibitors (novobiocin, ART-558, and RP6685) were evaluated both individually and in combination with standard of care and investigational anticancer small molecules within a complex spheroid model of solid tumors. . Complex spheroids include a stromal component modeled by human endothelial cells (HUVEC) and fibroblasts modeled by human mesenchymal stem cells (MSCs). The concentration ranges selected for each drug and investigational agent were based upon clinically achievable concentrations if the clinical Cmax of the agent was known.
Compounds. The drugs and investigational agents: novobiocin (NSC847541), ART-558 (NSC835418), RP-6685 (NSC848927), peposertib (NSC802822), ceralasertib (NSC780249), elimusertib (NSC800525), camonsertib (NSC841442), AZD-1390 (NSC803789), olaparib (NSC753686), talazoparib (NSC767125), rucaparib (NSC756644), sotorasib (NSC818433), MRTX-1133 (NSC836407), SN-38 (NSC673596), topotecan (NSC609699), epotoside (NSC141540), doxorubicin (NSC123127), gemcitabine (NSC613327), 5-fluorouracil (NSC19893), paclitaxel (NSC125973), vemurafenib (NSC761431), MSA-2 (NSC828583), SN-011 (NSC837082), adavosertib (NSC754352), prexasertib (NSC758257), carboplatin (NSC241240) and oxaliplatin (NSC266046), were obtained from the National Cancer Institute (NCI) Developmental Therapeutics Program Chemical Repository (21). The FDA-approved anticancer drug set is available from the Developmental Therapeutics Program at https://dtp.cancer.gov/organization/dscb/obtaining/. […] The stock solutions were prepared in dimethyl sulfoxide (DMSO, Sigma-Aldrich, St. Louis, MO, cat. D2650), except for the platinum compounds which were prepared in saline (Quality Biological, Gaithersburg, MD, cat. 114-055-101), at 800-fold the tested concentration and stored at -70 degrees C prior to their use. All drugs and investigational agents were tested over a range starting from a high concentration at or near the clinical Cmax and decreasing in half-log increments. If the clinical Cmax for an agent had not been determined, the highest concentration tested was 10 microM, except for SN-38, which was tested at a high concentration of 1 microM.
Cell Culture. All cells were maintained in an incubator at 37 degrees C and 5% CO2 with 95% humidity. The PDC lines were cultured according to standard operating procedures established by the NCI PDMR (https://pdmr.cancer.gov). Table 3 of the manuscript, lists the cell lines along with the number of the three cell types plated to form the mct-spheroids and media for tumor cell growth. After thawing, all PDC lines, except 997537-175-T-J1-PDC and 415267-285-R-J2-PDC, were cultured in Matrigel-coated flasks prepared with a working solution of 1X Ham's F-12 nutrient mix, without supplementation (Thermo Fisher Scientific, cat. 11765054), 100 U/mL penicillin-streptomycin (Thermo Fisher Scientific, cat. 15140122), and 2.5% Matrigel (Corning Inc., Corning, NY, cat. 354248) for the first three passages. The two PDC lines 997537-175-T-J1-PDC and 415267-285-R-J2-PDC were cultured on uncoated flasks. The 857933-349-R-J2-PDC line was cultured in 6C/Colon 1B media containing advanced DMEM/F-12 (Thermo Fisher Scientific, cat. 12634028), 10 mM HEPES (Thermo Fisher Scientific, cat. 15630080), 1X GlutaMAX supplement (Thermo Fisher Scientific, cat. 35050061), 0.1 mg/mL primocin (InvivoGen, San Diego, CA, cat. ant-pm-2), 10% defined fetal bovine serum, heat inactivated (HyClone Laboratories Inc., Logan, UT, cat. SH30070.03HI), 50% L-WRN conditioned media (ATCC, cat. CRL-3276), 1.25 mM N-Acetyl-L-cysteine (Sigma-Aldrich, cat. A9165), 10 mM nicotinamide (Sigma-Aldrich, cat. N0636), 1X B-27 supplement (Thermo Fisher Scientific, cat. 17504044), 1X N-2 supplement (Thermo Fisher Scientific, cat. […]

[1] = second compound 0.0316 µM, first compound 0.0316 µM
[2] = second compound 0.0316 µM, first compound 0.1 µM
[3] = second compound 0.0316 µM, first compound 0.316 µM
[4] = second compound 0.0316 µM, first compound 1 µM
[5] = second compound 0.0316 µM, first compound 3.16 µM
[6] = second compound 0.0316 µM, first compound 10 µM
[7] = second compound 0.1 µM, first compound 0.0316 µM
[8] = second compound 0.1 µM, first compound 0.1 µM
[9] = second compound 0.1 µM, first compound 0.316 µM
[10] = second compound 0.1 µM, first compound 1 µM
[11] = second compound 0.1 µM, first compound 3.16 µM
[12] = second compound 0.1 µM, first compound 10 µM
[13] = second compound 0.316 µM, first compound 0.0316 µM
[14] = second compound 0.316 µM, first compound 0.1 µM
[15] = second compound 0.316 µM, first compound 0.316 µM
[16] = second compound 0.316 µM, first compound 1 µM
[17] = second compound 0.316 µM, first compound 3.16 µM
[18] = second compound 0.316 µM, first compound 10 µM
[19] = second compound 1 µM, first compound 0.0316 µM
[20] = second compound 1 µM, first compound 0.1 µM
[21] = second compound 1 µM, first compound 0.316 µM
[22] = second compound 1 µM, first compound 1 µM
[23] = second compound 1 µM, first compound 3.16 µM
[24] = second compound 1 µM, first compound 10 µM
[25] = second compound 3.16 µM, first compound 0.0316 µM
[26] = second compound 3.16 µM, first compound 0.1 µM
[27] = second compound 3.16 µM, first compound 0.316 µM
[28] = second compound 3.16 µM, first compound 1 µM
[29] = second compound 3.16 µM, first compound 3.16 µM
[30] = second compound 3.16 µM, first compound 10 µM
[31] = second compound 10 µM, first compound 0.0316 µM
[32] = second compound 10 µM, first compound 0.1 µM
[33] = second compound 10 µM, first compound 0.316 µM
[34] = second compound 10 µM, first compound 1 µM
[35] = second compound 10 µM, first compound 3.16 µM
[36] = second compound 10 µM, first compound 10 µM
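Also: spheroids exposed to agents for 7 days before viability reading.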
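For viability, T/C in this document: percent of DMSO vehicle control viability so 100% = vehicle and 0% = no viable signal.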

SMILES: CC1COCCN1c1cc(C2(O)CC3CCC(C2)O3)c2cnn(-c3ccn[nH]3)c2n1 (centres undefined) + COC1C(OC(N)=O)C(O)C(Oc2ccc3c(O)c(NC(=O)c4ccc(O)c(CC=C(C)C)c4)c(=O)oc3c2C)OC1(C)C
- IC50 (second compound 0.0316 µM): 1.36 µM
- IC50 (second compound 0.1 µM): 0.811 µM
- IC50 (second compound 0.316 µM): 1.4 µM
- IC50 (second compound 1 µM): 1.17 µM
- IC50 (second compound 3.16 µM): 0.939 µM
- IC50 (second compound 10 µM): 1.44 µM
- viability, T/C [1]: 94.4%
- viability, T/C [2]: 80.1%
- viability, T/C [3]: 67.3%
- viability, T/C [4]: 51.5%
- viability, T/C [5]: 43%
- viability, T/C [6]: 34.2%
- viability, T/C [7]: 109%
- viability, T/C [8]: 79.4%
- viability, T/C [9]: 60.9%
- viability, T/C [10]: 46.8%
- viability, T/C [11]: 41.4%
- viability, T/C [12]: 34.2%
- viability, T/C [13]: 104%
- viability, T/C [14]: 84.8%
- viability, T/C [15]: 61%
- viability, T/C [16]: 52.1%
- viability, T/C [17]: 49%
- viability, T/C [18]: 34.5%
- viability, T/C [19]: 96.6%
- viability, T/C [20]: 80.7%
- viability, T/C [21]: 65.3%
- viability, T/C [22]: 50.2%
- viability, T/C [23]: 43.6%
- viability, T/C [24]: 40.1%
- viability, T/C [25]: 101%
- viability, T/C [26]: 83%
- viability, T/C [27]: 65%
- viability, T/C [28]: 45.8%
- viability, T/C [29]: 45.4%
- viability, T/C [30]: 34.9%
- viability, T/C [31]: 108%
- viability, T/C [32]: 83.4%
- viability, T/C [33]: 62.5%
- viability, T/C [34]: 55.3%
- viability, T/C [35]: 45.6%
- viability, T/C [36]: 36.3%

SMILES: CC1COCCN1c1cc(-c2ccnn2C)c2ccnc(-c3ccn[nH]3)c2n1 (centres undefined) + Cc1cccc(N(C)C(=O)C2C(O)CCN2c2nc(C)cc(C(F)(F)F)c2C#N)c1
- IC50 (second compound 0.0316 µM): 2.33 µM
- IC50 (second compound 0.1 µM): > 10 µM
- IC50 (second compound 0.316 µM): 3.97 µM
- IC50 (second compound 1 µM): 5.14 µM
- IC50 (second compound 3.16 µM): > 10 µM
- IC50 (second compound 10 µM): > 10 µM
- viability, T/C [1]: 98.3%
- viability, T/C [2]: 99.1%
- viability, T/C [3]: 74.4%
- viability, T/C [4]: 58%
- viability, T/C [5]: 47.8%
- viability, T/C [6]: 45.4%
- viability, T/C [7]: 93.9%
- viability, T/C [8]: 90.3%
- viability, T/C [9]: 75.2%
- viability, T/C [10]: 59.4%
- viability, T/C [11]: 62.2%
- viability, T/C [12]: 56.1%
- viability, T/C [13]: 92.2%
- viability, T/C [14]: 86.8%
- viability, T/C [15]: 75.5%
- viability, T/C [16]: 58.6%
- viability, T/C [17]: 46.3%
- viability, T/C [18]: 51.8%
- viability, T/C [19]: 107%
- viability, T/C [20]: 89%
- viability, T/C [21]: 70.9%
- viability, T/C [22]: 59%
- viability, T/C [23]: 50.2%
- viability, T/C [24]: 48.8%
- viability, T/C [25]: 109%
- viability, T/C [26]: 108%
- viability, T/C [27]: 69.4%
- viability, T/C [28]: 55.2%
- viability, T/C [29]: 51.1%
- viability, T/C [30]: 51.3%
- viability, T/C [31]: 94.7%
- viability, T/C [32]: 86.5%
- viability, T/C [33]: 75.8%
- viability, T/C [34]: 65.4%
- viability, T/C [35]: 52.6%
- viability, T/C [36]: 53.8%
